Reference: patent US20220251109A1, “OXAAZAQUINAZOLINE-7(8H)-KETONE COMPOUND, PREPARATION METHOD THEREFOR AND PHARMACEUTICAL APPLICATION THEREOF” (GENFLEET THERAPEUTICS (SHANGHAI) INC., priority 2019, published 2022)

What was measured:
Format in all cases: cell-based, human
[1] = system: p-ERK in MIA PaCa2 cells (Kras G12C mutation); assay: Cell p-ERK detection experiment (HTRF) in MIA PaCa2 cells; details: compound 2 hours
Description: MIA PaCa2 was a human pancreatic cancer cell line with Kras G12C mutation, cultured in 10% FBS+2.5% Horse serum DMEM medium. The cells in the logarithmic growth phase were taken, digested with enzyme EDTA, collected, counted and 2.5E4 cells were seeded in a 96-well cell culture plate, cultured overnight. DMSO was used to prepare 1000× compound 3.16-fold gradient concentration stock solution, and medium was used to dilute 200-fold to 5× compound stock solution. On the second day after cell seeding, 5× compound stock solution was added to each cell culture well, the final concentration was 1×, and DMSO content was 0.1%. DMSO was used as an experimental control (control). After the compound was added and cultured for two hours, the remaining medium was removed. 50 ul cell lysis buffer was added to each well, mixed and incubated for 30 minutes, then 16 ul of the mixture was transferred to a 96-well plate with a non-transparent white bottom, and 16 ul cell lysis buffer was added to blank wells. After the completion of the transfer, 4 ul p-ERK HTRF antibody mixture was added to each well, incubated for 4 hours and the fluorescence value was read. The compound inhibition rate IR (%)=(RLU control-RLU compound)/(RLU control-RLU blank)×100% was calculated, Prism 8 four-parameter method was used to fit the compound's gradient dilution concentration and the corresponding cell proliferation inhibition rate, and the IC50 value was calculate.

[2] = system: A549 cells (Kras G12S mutation); assay: Cell proliferation inhibition experiment, 3D model, CellTiter-Glo (A549); details: A549, 3D sphere plate, 5 days, 2% FBS
Outline: (§1)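 Luminescent ATP read-out (CellTiter-Glo) after 5-day compound treatment gave % inhibition relative to DMSO control and medium blank, fitted four-parameter for IC50. Spheroids were formed overnight in 2% FBS medium from 800 H358 or 400 A549 cells per well; dilutions were 3.16-fold, final DMSO 0.1%.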

[3] = system: NCI-H358 cells (Kras G12C mutation); assay: Cell proliferation inhibition experiment, 3D model, CellTiter-Glo (NCI-H358); details: NCI-H358, 3D sphere plate, 5 days, 2% FBS
Outline: as §1

Row | SMILES | IC50 [1] [nM] | IC50 ([2]; Homo sapiens, A549, 120 h) [nM] | IC50 [3] [nM] | IC50 [2] [nM] | IC50 ([1]; Homo sapiens, MIA PaCa-2, 2 h) [nM] | IC50 ([3]; Homo sapiens, NCI-H358, 120 h) [nM]
1 | C=CC(=O)N1CCN2c3nc(=O)n(-c4c(C)ncnc4C(C)C)c4nc(-c5cccc(F)c5F)c(Cl)c(c34)OC[C@H]2C1 (single isomer, unassigned) [Compound Z96-1] | 195 | > 10000 | 59 | – | – | –
2 | C=CC(=O)N1CCN2c3nc(=O)n(-c4c(C)ccnc4C(C)C)c4nc(-c5cccc(Cl)c5F)c(Cl)c(c34)OC[C@H]2C1 (atropisomer, axis not shown) [Compound Z91-1] | 93 | – | 30 | 10100 | – | –
3 | C=CC(=O)N1CCN2c3nc(=O)n(-c4c(C)ncnc4C(C)C)c4nc(-c5ccccc5F)c(Cl)c(c34)OC[C@H]2C1 (single isomer, unassigned) [Compound Z95-1] | 248 | 11300 | 52 | – | – | –
4 | C=CC(=O)N1CCN2c3nc(=O)n(-c4c(C)ccnc4C(C)C)c4nc(-c5cccc(Cl)c5F)c(Cl)c(c34)OC[C@@H]2C1 (single isomer, unassigned) [Compound Z82-1] | 407 | – | 23 | 3560 | – | –
5 | C=CC(=O)N1CCN2c3nc(=O)n(-c4c(C)ccnc4C(C)C)c4nc(-c5cccc(F)c5F)c(Cl)c(c34)OC[C@@H]2C1 (atropisomer, axis not shown) [Compound Z47-2] | 314 | – | 42 | > 10000 | – | –
6 | C=CC(=O)N1CCN2c3nc(=O)n(-c4nccnc4C(C)C)c4nc(-c5c(O)cccc5F)c(F)c(c34)OC[C@H]2C1 (atropisomer, axis not shown) [Compound Z107-1] | 226 | > 30000 | 19 | – | – | –
7 | C=CC(=O)N1CCN2c3nc(=O)n(-c4c(C)ccnc4C(C)C)c4nc(-c5cccc(Cl)c5F)c(Cl)c(c34)OC[C@@H]2C1 (single isomer, unassigned) [Compound Z82-2] | 23 | – | 2 | 8300 | – | –
8 | C=CC(=O)N1CCN2c3nc(=O)n(-c4c(C)ncnc4C(C)C)c4nc(-c5c(O)cccc5F)c(Cl)c(c34)OC[C@H]2C1 (single isomer, unassigned) [Compound Z88-2] | 27 | – | 3 | > 10000 | – | –
9 | C=CC(=O)N1CCN2c3nc(=O)n(-c4c(OC)ncnc4C(C)C)c4nc(-c5c(O)cccc5F)c(F)c(c34)OC[C@H]2C1 (single isomer, unassigned) [Compound Z111-1] | – | > 30000 | – | – | 186 | 34
10 | C=CC(=O)N1CCN2c3nc(=O)n(-c4c(C)ccnc4C(C)C)c4nc(-c5c(F)cccc5OC)c(Cl)c(c34)OC[C@H]2C1 (single isomer, unassigned) [Compound Z83-1] | 9 | 12100 | 1 | – | – | –
11 | C=CC(=O)N1CCN2c3nc(=O)n(-c4c(C)ccnc4C(C)C)c4nc(-c5c(F)cccc5OC)c(Cl)c(c34)OC[C@H]2C1 (single isomer, unassigned) [Compound Z83-2] | 67 | – | 15 | 9770 | – | –
12 | C=CC(=O)N1CCN2c3nc(=O)n(-c4c(C)ccnc4C(C)C)c4nc(-c5cccc(C(F)(F)F)c5F)c(Cl)c(c34)OC[C@@H]2C1 (single isomer, unassigned) [Compound Z57-2] | – | – | 3 | > 10000 | 27 | –

Further lines, results first:

Row | IC50 [1] [nM] | IC50 ([2]; Homo sapiens, A549, 120 h) [nM] | IC50 [3] [nM] | IC50 [2] [nM] | IC50 ([1]; Homo sapiens, MIA PaCa-2, 2 h) [nM] | IC50 ([3]; Homo sapiens, NCI-H358, 120 h) [nM] | SMILES
13 | – | > 10000 | – | – | 128 | 16 | C=CC(=O)N1CCN2c3nc(=O)n(-c4c(C)ccnc4C(C)C)c4nc(-c5c(O)cccc5F)c(C=C)c(c34)OC[C@H]2C1 [Compound Z74]
14 | – | 7780 | – | – | 19 | 4 | C=CC(=O)N1CCN2c3nc(=O)n(-c4c(C)ccnc4C(C)C)c4nc(-c5ccccc5Cl)c(Cl)c(c34)OC[C@H]2C1 [Compound Z90]
15 | 16 | – | 2 | 4220 | – | – | C=CC(=O)N1CCN2c3nc(=O)n(-c4c(C)ccnc4C(C)C)c4nc(-c5cccc(Cl)c5F)c(Cl)c(c34)OC[C@H]2C1 [Compound Z91]
16 | – | > 10000 | – | – | 19 | 3 | C=CC(=O)N1CCN2c3nc(=O)n(-c4c(C)ccnc4C(C)C)c4nc(-c5c(F)cccc5F)c(Cl)c(c34)OC[C@H]2C1 [Compound Z80]
